The target in experiment [1] is T1, Decaprenyl diphosphate synthase (Mycobacterium tuberculosis (strain CDC 1551 / Oshkosh), UniProt P9WFF6).
T1 sequence (P9WFF6 whole entry): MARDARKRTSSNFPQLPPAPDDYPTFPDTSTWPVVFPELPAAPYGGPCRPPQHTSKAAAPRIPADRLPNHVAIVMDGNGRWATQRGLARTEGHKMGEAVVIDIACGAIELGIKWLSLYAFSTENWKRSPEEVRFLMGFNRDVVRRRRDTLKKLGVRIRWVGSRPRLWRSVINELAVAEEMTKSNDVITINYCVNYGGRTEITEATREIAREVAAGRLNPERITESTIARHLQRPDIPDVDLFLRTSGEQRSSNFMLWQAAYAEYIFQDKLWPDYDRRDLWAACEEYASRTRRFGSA
Kind of experiment: DPPS Inhibition (GPP based) Assay. The conditions noted are these: pH 7.5. The text has this: We screened an in-house library of 43 compounds using GPP as substrate.

For experiment [2], the target named is T1, Decaprenyl diphosphate synthase. Kind of experiment: DPPS Inhibition (cis FPP based) Assay. The conditions noted are these: pH 7.5. The source says: We screened an in-house library of 19 compounds using cis-FPP as substrate.
For experiment [3] the target is unchanged. The experiment can be described thus: DPPS Inhibition (trans FPP based) Assay. The note with it: pH 7.5. The text has this:
We screened an in-house library of 53 compounds using trans-FPP as substrate.

Experiment [4] concerns the target T2, Tuberculosinyl adenosine transferase (Mycobacterium tuberculosis (strain CDC 1551 / Oshkosh), UniProt P9WJ60).
T2 sequence (P9WJ60 whole entry): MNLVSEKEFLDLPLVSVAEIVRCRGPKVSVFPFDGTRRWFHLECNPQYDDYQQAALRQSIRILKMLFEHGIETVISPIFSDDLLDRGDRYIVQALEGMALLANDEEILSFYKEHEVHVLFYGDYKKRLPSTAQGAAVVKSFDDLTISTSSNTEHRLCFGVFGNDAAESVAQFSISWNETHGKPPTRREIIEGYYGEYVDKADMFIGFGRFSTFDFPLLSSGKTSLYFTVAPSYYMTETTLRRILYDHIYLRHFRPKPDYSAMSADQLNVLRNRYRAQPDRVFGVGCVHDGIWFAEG
Kind of experiment: Rv3378c Inhibition Assay. On the procedure: For inhibition assay of Rv3378c, using tuberculosinyl diphosphate and adenosine as substrates, a mixture of 100 µM TPP, 100 µM adenosine,75 µg/mL Rv3378c, and inhibitors in the assay buffer (25 mM Tris-HCl, 1 mM MgCl2, 0.01% Triton-X-100) was incubated for 2 h at 37 °C.

As to `CCCCCCCCOc1ccc(F)c(C(=O)Nc2ccc(F)cc2C(=O)O)c1` [BPH-1485], the IC50 in experiment [1] worked out at 0.308 µM; in experiment [2], 20 µM.
Turning to `Cc1ccc(S(=O)(=O)N2CCN(c3ccc(C(=O)/C=C(\O)C(=O)O)cc3)CC2)cc1` [BPH-1380], the IC50 in experiment [2] came out at 20 µM.
For `CCCCCCCCOc1ccc(C(=O)CSCC(=O)O)cc1` [BPH-1391], half-maximal inhibition in experiment [2] (IC50) was put at 82 µM. This IC50 lies about 4.1-fold higher than the previous one.
On the same count and under the same terms, the value for `CCCCCCCCCCOc1cccc(COc2ccccc2P(=O)(O)O)c1` [BPH-1159] was 55 µM; that for `CCCCCCCCCCOc1cccc(CSc2ccccc2C(=O)O)c1` [BPH-1102] was 19 µM.
For the compound `CCCCCCCCOc1cc(O)cc(COc2ccc(Br)cc2C(=O)O)c1` [BPH-1311], the IC50 in experiment [1] is 2.9 µM; in experiment [2], 56 µM.
For `O=C(O)/C(O)=C/C(=O)c1ccc(N2CCN(C(=O)c3cccc(-c4ccccc4)c3)CC2)cc1` [BPH-1381], the IC50 in experiment [2] stood at 15 µM. This counts as double-digit micromolar.
Consider `O=P(O)(O)C(O)(Cc1cccc(-c2cccc3c2oc2ccccc23)c1)P(=O)(O)O` [[1-hydroxy-2-(3-{8-oxatricyclo[7.4.0.0^{2,7}]trideca-1(13),2,4,6,9,11-hexaen-6-yl}phenyl)-1-phosphonoethyl]phosphonic acid], for which the figures for the IC50 in experiment [3] and in experiment [4] were 19 µM and 0.21 µM, respectively.
With `O=P(O)(O)C(O)(c1cccc(-c2cccc(-c3ccccc3)c2)c1)P(=O)(O)O` [BPH-640], the figures for the IC50 in experiment [1] and in experiment [2] were 0.41 µM and 0.61 µM, respectively.
Taken in the same sequence, the figures for `O=C(O)c1ccccc1SCc1cccc(Oc2ccccc2)c1` [BPH-1125] were 1.2 µM and 30 µM.
In experiment [3], `O=P(O)(O)C(O)(CCc1cccc(-c2cccc(-c3ccccc3)c2)c1)P(=O)(O)O` [BPH-622] came in with an IC50 of 55 µM.
For the compound `O=C(Nc1cccc(C2=NCCN2)c1)c1ccc(-c2ccc(C(=O)Nc3cccc(C4=NCCN4)c3)cc2)cc1` [50460, 14], in experiment [4], half-maximal inhibition (IC50) required 96 µM.
Consider `CCCCCCCCOc1cccc(C(=O)Nc2ccc(Br)cc2C(=O)O)c1` [BPH-1264], for which the IC50 in experiment [1] came out at 0.068 µM; in experiment [2] it was 11 µM.
Taken in the same sequence, the figures for `CCCCCCCCOc1cccc(COc2ccc(S(=O)(=O)N3CCOCC3)cc2C(=O)O)c1` [BPH-1158] were 1.4 µM and 83 µM.
Consider `CCCCCCCCOc1cccc(C(=O)Nc2cc(OC)c(OC)cc2C(=O)O)c1` [BPH-1294], for which the IC50 came to 0.205 µM in experiment [1] and 62 µM in experiment [2].
Turning to `CCCCCCCCCCCCCCCn1cc[n+](CC(O)(P(=O)(O)O)P(=O)(O)O)c1` [BPH-1325], the IC50 in experiment [2] stood at 36 µM.
On to `O=P(O)(O)C(O)(CCc1cccc(-c2cccc3c2oc2ccccc23)c1)P(=O)(O)O` [BPH-646], for which, in experiment [3], the midpoint of inhibition, the IC50, lay at 363 µM.
Consider `CCCCCCCCOc1cccc(C(=O)Nc2ccc(S(N)(=O)=O)cc2C(=O)O)c1` [BPH-1255], for which the IC50 in experiment [2] worked out at 65 µM. This counts as double-digit micromolar.
The same measure, in the same setting: the value for `CCCCCCCCOc1cccc(CO/C=C/C=C(\C=C\C(=O)O)S(=O)(=O)N(C)C)c1` [BPH-1152] was 83 µM.
Take `O=P(O)(O)C(O)(Cc1cccc(-c2cccc(NS(=O)(=O)c3cccc(S(=O)(=O)Nc4cccc(-c5cccc(CC(O)(P(=O)(O)O)P(=O)(O)O)c5)c4)c3)c2)c1)P(=O)(O)O` [BPH-789]: the IC50 in experiment [1] stood at 0.36 µM; in experiment [3], 5.4 µM.
As to `C=CCC(/C=C/C(=O)Nc1ccc(F)cc1C(=O)O)OCCCCCCCC` (stereo unspecified) [BPH-1463], the IC50 in experiment [1] stood at 0.031 µM; in experiment [2], 90 µM.
Taken in the same sequence, the figures for `CCCCCCCCOc1cccc(C(=O)Nc2cccc(C(=O)O)c2C(O)O)c1` [BPH-1461] were 0.164 µM and 55 µM.
The compound `O=P(O)(O)C(O)(c1ccc(-c2ccccc2)cc1)P(=O)(O)O` [(Biphenyl-4-yl-hydroxy-phosphono-methyl)-phosphonic acid] yielded an IC50 in experiment [3] of 17 µM. That is a double-digit micromolar value.
In turn, `O=P(O)([CH2][Na])C(O)(Cc1ccc(-c2ccccc2)cc1)P(=O)(O)[CH2][Na]` (stereo unspecified) [BPH-310] displayed an IC50 in experiment [3] of 8.8 µM.
In experiment [3], `O=P(O)(O)C(O)(CCc1cccc(-c2ccccc2-c2ccccc2)c1)P(=O)(O)O` [BPH-621] returned an IC50 of 30 µM.
Regarding `CCCCCCCCc1cc[n+](CC(P(=O)(O)O)P(=O)(O)O)cc1` [BPH-717], in experiment [3], 113 µM corresponded to half-maximal inhibition (IC50).
Turning to `CCCCCCCCOc1cccc(C(=O)Nc2ccc([N+](=O)[O-])cc2C(=O)O)c1` [BPH-1247], the IC50 is 0.119 µM in experiment [1] and 49 µM in experiment [2].
Turning to `O=C(c1ccccc1)c1ccc(OCCCCCC[n+]2ccccc2)cc1` [BPH-921], in experiment [3], the IC50 stood at 880 µM.
As to `O=P(O)(O)C(O)(c1cccc(-c2ccccc2)c1)P(=O)(O)O` [(biphenyl-3-yl-hydroxy-phosphono-methyl)-phosphonic acid], in experiment [3], the IC50 came out at 40 µM.
`C(=C\c1cc2ccc(C3=NCCN3)cc2[nH]1)/c1cc2ccc(C3=NCCN3)cc2[nH]1` [BPH-1417]: the IC50 in experiment [1] stood at 0.49 µM; in experiment [2], 20 µM; in experiment [4] it was 0.66 µM.
`CCCCCCCCCCCCNCC(P(=O)(O)O)P(=O)(O)O` [1-[(n-Dodec-1-ylamino)ethyl]1,1-bisphosphonic acid] had an IC50 in experiment [3] of 370 µM.
`O=P(O)(O)C(O)(Cc1cccc(-c2ccccc2)c1)P(=O)(O)O` [BPH-294] came in with an IC50 in experiment [3] of 7.5 µM. This IC50 lies about 49-fold lower than the previous one.

What is called IC50 is the midpoint of a concentration-inhibition curve. A high value points to weaker potency in that assay.
